Assay results published in patent publication US5631275A, “Substituted benzenesulfonylureas and -thioureas, preparation processes and possible uses of pharmaceutical preparations based on these compounds” (Hoechst Aktiengesellschaft, priority 1993, dated 1997).

What was measured:
[1] = tested on: papillary muscle of the guineapig; assay: Action potential duration on the papillary muscle of the guineapig; assay type: cell-based; conditions: test substance 2.2×10^-5 mol per liter, 30 minutes after the addition, control without test substance <40; for APD95 -HOE 234: action potential shortened by 1 μM rilmakalim (Hoe 234); for APD95 -DEO: action potential shortened by 2-deoxyglucose (DEO)
Source text: ATP deficiency states such as are observed during ischemia in the cardiac muscle cell lead to a shortening of the duration of action potential. They are one of the causes of so-called reentry arrhythmias, which can cause sudden cardiac death. Opening of ATP-sensitive K channels by the reduction in ATP is a cause of this.
A standard microelectrode technique is used for measurement of the action potential. For this, guineapigs of both sexes are sacrificed by a blow to the head, the hearts are removed and the papillary muscles are separated out and suspended in an organ bath. The organ bath is flushed with Ringer solution (0.9% NaCl, 0.048% KCl, 0.024% CaCl2, 0.02% NaHCO3 and 0.1% glucose) and gassed with a mixture of 95% oxygen and 5% carbon dioxide at a temperature of 36° C. The muscle is stimulated via an electrode with rectangular pulses of 1 V and 1 ms duration and a frequency of 2 Hz. The action potential is conducted and recorded through a glass microelectrode, which is punctured intracellularly and filled with […] solution. The substances to be tested were added to the Ringer solution in a concentration of 2.2×10^-5 mol per liter. The action potential is shown in amplified form on an oscilloscope using a Hugo Sachs amplifier. The duration of the action potential is determined at a repolarization degree of 95% (APD95). Shortenings in action potential are caused either by addition of a 1 μM strength solution of the potassium channel opener rilmakalim (Hoe 234) [W. Linz, E. Klaus, U. Albus, R. H. A. Becker, D. Mania, H. C. Englert, B. A. Scholkens Arzneimittelforschung/Drug Research, Volume 42 (II), 1992, pages 1180-1185] or by addition of 2-deoxyglucose (DEO). ATP deficiency states are caused in experimental physiology by 2-deoxyglucose by blockade of glucose metabolism. The action potential-shortening effect of these substances was prevented or reduced by the simultaneous dose of the test substances. The test substances were added to the bath solution as stock solutions in propanediol. The values stated relate to measurements 30 minutes after the addition. The APD95 in the presence of DEO or HOE 234 and in the absence of the test substance serves as a control.

[2] = tested on: RINm5F cells; assay: Membrane potential on isolated β cells (RINm5F cells, whole cell patch clamp); assay type: cell-based; conditions: 10^-5 mol per liter, diazoxide (100 μmol) in bath, 34°±1° C., n = 6
Protocol: The action mechanism of hypoglycemic sulfonylureas is clarified in rough outlines. The β cells of the pancreas are the target organ, where increased secretion of the hypoglycemic hormone insulin occurs. The release of insulin is controlled by the cell membrane potential. Glihenclamide causes depolarization of the cell membrane, which promotes insulin release via an increased in-flow of calcium ions. The extent of this depolarization of the cell membrane ΔU was determined on RINm5F cells, a pancreas tumor cell line, for some of the compounds according to the invention. The action strength of a compound in this model predicts the extent of the hypoglycemic potential of this compound.
RINm5F cells were cultured at 37° C. in RPMI 1640 culture medium (flow), to which 11 mmol of glucose, 10% (volume/volume) of fetal calf serum, 2 mmol of glutamine and 50 μg/ml of gentamycin were added. For the studies, the cells were isolated by incubation (about 3 minutes) in a Ca^2+ -free medium containing 0.25% of trypsin and stored on ice.
Isolated RINm5F cells were introduced into a Plexiglas chamber on an inverse microscope fitted with a differential interference contrast lens. […] The cell potential was recorded in this whole cell configuration with the aid of a patch clamp amplifier (L/M EPC 7) and was measured by applying a potential ramp to the whole cell current. […]

With `CCC1=C(C)CN(C(=O)NCCc2ccc(OC)c(S(=O)(=O)NC(=S)NC)c2)C1=O` [Example 1, 1-{2-Methoxy-5-[2-(3-ethyl-4-methyl-2-oxo-3-pyrrolinyl-1-carboxamido)-ethyl]-phenylsulfonyl-}3-methylthiourea] as the molecule, how does the “APD95 -HOE 234” value [1] read?
The value was 119 ± 16 ms.

And the “APD95 -DEO” value [1]?
The value was 60 ± 22 ms.

What about the “ΔU (depolarization of the cell membrane)” value [2] of the same molecule?
Its value is 2 mV.

Which “APD95 -HOE 234” value [1] does the source give for `CCC1=C(C)CN(C(=O)NCCc2ccc(OC)c(S(=O)(=O)NC(=O)NC)c2)C1=O` [Example 2, 1-{2-Methoxy-5-[2-(3-ethyl-4-methyl-2-oxo-3-pyrrolinyl-1-carboxamido)-ethyl]-phenylsulfonyl-}3-methylurea] here?
Its value is 125 ms.

And the “APD95 -DEO” value [1]?
Its value is 110 ms.

What about the “ΔU (depolarization of the cell membrane)” value [2] of the same molecule?
Its value is 12 mV.
